# Laboratory results as given in PMC6155907 (Molecules : A Journal of Synthetic Chemistry and Natural …, 2016).
# Assays:
# [1] = test system: human GLP-1R (GLP-1R-YFP); test: Confocal microscopy of receptor internalization; assay type: cell-based; settings: 5 min after 1 µM GLP-1; HEK-293 transiently expressing GLP-1R-YFP; live cell confocal microscopy; at least three experiments
# Description: HEK-293 cells transiently expressing GLP-1R-YFP were plated on to a poly-D-lysin-coated coverslip and mounted on to an “Attofluor” holder (Molecular Probes, Leiden, The Netherlands). The cellular location of GLP-1R-YFP was monitored by live cell confocal microscopy performed on a Zeiss LSM 510 meta system (Carl Zeiss, Oberkochen, Germany). YFP was excited with the 514 nm line of an argon laser, and images were taken with an oil-immersion 63× lens using the factory settings for YFP.
# GLP-1R = settings: radioligand binding and time-resolved fluorescence resonance energy transfer; authors state own rate is in the same range; ref [22],[23]; cited from earlier work
compound,measurement,setting,value
"CC[C@H](C)[C@H](NC(=O)[C@H](Cc1ccccc1)NC(=O)[C@H](CCC(=O)O)NC(=O)[C@H](CCCCN)NC(=O)[C@H](C)NC(=O)[C@H](C)NC(=O)[C@H](CCC(N)=O)NC(=O)CNC(=O)[C@H](CCC(=O)O)NC(=O)[C@H](CC(C)C)NC(=O)[C@H](Cc1ccc(O)cc1)NC(=O)[C@H](CO)NC(=O)[C@H](CO)NC(=O)[C@@H](NC(=O)[C@H](CC(=O)O)NC(=O)[C@H](CO)NC(=O)[C@@H](NC(=O)[C@H](Cc1ccccc1)NC(=O)[C@@H](NC(=O)CNC(=O)[C@H](CCC(=O)O)NC(=O)[C@H](C)NC(=O)[C@@H](N)Cc1c[nH]cn1)[C@@H](C)O)[C@@H](C)O)C(C)C)C(=O)N[C@@H](C)C(=O)N[C@@H](Cc1c[nH]c2ccccc12)C(=O)N[C@@H](CC(C)C)C(=O)N[C@H](C(=O)N[C@@H](CCCCN)C(=O)NCC(=O)N[C@@H](CCCNC(=N)N)C(N)=O)C(C)C [GLP-1, glucagon-like peptide-1]",cellular location of GLP-1R-YFP after agonist stimulation,[1],the receptor appeared as punctate dots in the cytoplasm
same,t1/2 of receptor internalization (range of previous studies),GLP-1R,2 to 3 min
